Experiment [1] deals with endothelial progenitor cells (EPC). Briefly: EPC mobilization in normal mice, single MONC402 dose. The experiment is classed as in vivo. To be noted: G-CSF 200 μg/kg 3 days; docetaxel i.p. 40 mg/kg; cisplatin i.p. 6 mg/kg; 24 h. The procedure:
In one experiment, normal mice were treated with G-CSF (s.c., 3 consecutive days), docetaxel or cisplatin (one i.p. dose) with or without simultaneous MONC402 treatment (one s.c. dose). EPC mobilization was monitored 24 h later. Mice (8 mice/group) were dosed s.c. with Saline or MONC402 (40 mg/kg) (or DC101 at 40 mg/kg for control with docetaxel). About 30 min later, mice were given docetaxel (i.p., 40 mg/kg), cisplatin (i.p., 6 mg/kg), or saline control. As a positive control, 2 groups of mice were also dosed with G-CSF […]. (200 μg/kg) for 3 days, either alone or in combination with a single dose of MONC402 (s.c. at 40 mg/kg) on the last day. 24 h later, the mice were euthanized, and 0.5-0.8 mL of blood taken by cardiac puncture:
About 300 μL of whole blood was transferred directly into 14 mL of lysis buffer for flow cytometry of EPC. The remaining 300-600 μL were processed for serum (SDF-1α). For flow cytometry, lysed cells were washed and blocked, then stained with CD13-FITC, CD117-PE, 7-AAD, VEGFR2-APC, and CD45-PE/Cy7. A total of 50,000 cells were acquired per sample in the PBMNC gate.

The subject of experiment [2] is 4T1 cells. Briefly: Second 4T1 experiment, osmotic pump delivery. To be noted: MONC402 20 mg/kg/day osmotic pump; Cisplatin 1.25 mg/kg weekly; day 32. The format is in vivo, BALB/c mice. How it is done: FIG. 2 is a bar graph showing the effect of a polysaccharide preparation described herein in a 4T1 therapeutic model of breast cancer metastasis to the lung. Lung tumor burden (lung weight-normal lung weight) was determined on day 32 for female BALB/c mice (8 weeks old) challenged with intra-mammary fat pad injection of 8×10^4 4T1 cells and treated as indicated starting on day 4. In a second 4T1 experiment, female BALB/c mice 8 WOA were injected with 8×10^4 4T1 cells intra mammary fat pad. Continuous osmotic pump delivery of saline or MONC 402 with weekly treatment of saline or Cisplatin started on day 4. Primary tumors were removed on day 9. […] The experiment terminated on day 32 and different samples were taken. 6 mice were either found dead or were terminated early due to worsened overall condition. 4T1 lung metastases were determined by lung weight, lung tumor nodule quantification including nodule number, size and calculated tumor volume, as well as histological quantification.

In experiment [3] the test system is 4T1 cells. Kind of experiment: 4T1 breast cancer metastasis to the lung model, daily treatment. The format is in vivo, BALB/c mice. Conditions: Cisplatin weekly from day 5. How it is done:
Female BALB/c mice 8 weeks of age (WOA) were injected with 8×10^4 4T1 cell intra mammary fat pad. Daily treatment with saline or MONC402 with or without weekly treatment of cisplatin started on day 5. Primary tumors were removed on day 9 and weighed.

The test system of experiment [4] is endothelial progenitor cells (EPC). Briefly: Docetaxel induced EPC mobilization in 4T1 tumor bearing mice, MONC402 via osmotic pump. The experiment is classed as in vivo. Conditions: Docetaxel 40 mg/kg i.p. Day 6; MONC402 osmotic pump 40 mg/kg/day monotherapy. How it is done: A third experiment was conducted to evaluate the effect of MONC402 on EPC mobilization in response to treatment with docetaxel in 4T1 tumor bearing mice.
4T1 tumors were implanted on Day 0 at 1×10^5 cells/mouse into the 4th mammary fat pad. Pumps with Saline or MONC402 were implanted on Day 0, immediately after tumor cell injections. Mice were randomized to the following groups: • 1. Saline Control, n=8 • 2. Docetaxel, 40 mg/kg, Day 6, n=8 • 3. M402, pump, 40 mg/kg/day, Day 0, n=8 • 4. Docetaxel, 40 mg/kg, Day 6+M402, pump, 40 mg/kg/day, Day 0, n=8
Docetaxel or Saline was administered i.p. on Day 6 in the AM. Four h later, mice were bled by submandibular plexus for EPC profiling and soluble factor analysis. Primary tumors were removed on Day 9 for histological analyses. Blood was also collected for soluble factor analyses (72 h after docetaxel dosing). Serum samples were analyzed using a 19-plex Luminex kit. In addition, samples were also tested for SDF-1α levels by ELISA.

For experiment [5] the test system is unchanged. Kind of experiment: EPC mobilization in mice, second experiment (daily MONC402 with G-CSF). The experiment is classed as in vivo. To be noted: G-CSF 200 μg/kg s.c. 5 consecutive days; docetaxel i.p. 40 mg/kg. How it is done: In a second experiment, it was tested if daily dosing for 5 days with MONC402 would generate a stronger inhibitory effect on EPC mobilization caused by treatment with a taxane.
Mice (10 mice/group) were dosed s.c. with Saline or MONC402 (40 mg/kg), or DC101 (40 mg/kg, as a positive inhibition control with docetaxel). About 30 min later, mice were given docetaxel (i.p., 40 mg/kg) or saline control. As a positive control, 2 groups of mice were also dosed with G-CSF (200 μg/kg) s.c. for 5 consecutive days±daily MONC402. 24 h later, the mice were euthanized, and 500-800 μL of blood taken by cardiac puncture. 150 μL were transferred into 5 mL of lysis buffer for flow cytometric analysis of EPC. The remaining 350-500 μL were processed for serum (SDF-1α). For flow cytometry, cells were washed and blocked and then stained with CD13-FITC, CD117-PE, 7-AAD, VEGFR2-APC, and CD45-PE/Cy7. A total of 50,000 cells were acquired per sample in the PBMNC gate.

Experiment [6] deals with C170HM2 human colorectal tumor cells. Briefly: C170HM2 colon cancer metastasis to the liver model. The format is in vivo, MF1 nude (nu/nu) athymic mice. Conditions: 25 mg/kg i.v. cycled on days 1, 3, 5, 7; liver tumors day 35. The procedure:
Liver metastasis was initiated by intraperitoneal injection of C170HM2 human colorectal tumor cells into male MF1 nude (nu/nu) athymic mice. 5FU/leucovorin was used as a positive control.
C170HM2 cells were maintained in vitro in RPMI culture medium (Sigma) containing 10% (v/v) heat inactivated fetal bovine serum and 2 mM L-glutamine at 37° C. in 5% CO2 and humidified conditions. Cells from sub-confluent monolayers were harvested with 0.025% EDTA, washed in culture medium and re-suspended in sterile phosphate buffered saline, pH 7.4 (PBS) for in vivo administration. 1.5×10^6 cells in a volume of 1 ml were injected intraperitoneally into 65 mice, and the mice were allocated into treatment groups as below.
Treatment was initiated on day 1 following cell injection and continued until day 35 or until the clinical condition of the animal required termination. Groups 5 and 6 missed one dose on day 5. No adverse affects of the test compounds in mice bearing the tumors were observed.
The study was terminated on day 35, and the tumors in the liver were excised and weighed. The numbers of lung nodules are also counted.

Turning to `N.N.[Cl][Pt][Cl]` [Cisplatin, cisplatin], the “EPC mobilization compared to Saline control” value in experiment [1] is on record as “did not show this effect”. Also, the 4T1 lung metastasis entry in the experiment on 4T1 cells [2] is recorded as “significant anti-tumor efficacy”. In addition, in the experiment on 4T1 cells [3], the “Average lung tumor size” value came to 1.41, the Average tumor size is recorded as 1.36, the “Lung tumor nodule #/animal” value was found to be 5.6 ± 4.4 and the Total tumor nodule is given as 89. This molecule yielded a Total tumor volume in the experiment with 4T1 cells [3] of 134.13.
On to `CC(=O)O[C@@]12CO[C@@H]1C[C@H](O)[C@@]1(C)C(=O)[C@H](O)C3=C(C)[C@@H](OC(=O)[C@H](O)[C@@H](NC(=O)OC(C)(C)C)c4ccccc4)C[C@@](O)([C@@H](OC(=O)c4ccccc4)[C@H]21)C3(C)C` [Docetaxel, docetaxel], for which the “EPC mobilization compared to Saline control” value in experiment [1] was “significant increase”. The “EPC in the blood at 4 h” value in experiment [4] was “significant increase”. For the same molecule, in experiment [5], the EPC mobilization result was “significant increase”.
In the case of 5FU/leucovorin, in experiment [6], the “Mean tumor area (% of vehicle)” value was 15.7 % of vehicle, the “Mean tumor area (mm^2)” value is reported as 13.12 mm^2, the “Mean tumor weight” value worked out at 0.037 g and the “Mean tumor weight (% of vehicle)” value is listed as 11.94 % of vehicle.

B1: granulocyte colony stimulating factor (protein, UniProt P09919 31-207, looked up)
Granulocyte …: TPLGPASSLPQSFLLKCLEQVRKIQGDGAALQEKLVSECATYKLCHPEELVLLGHSLGIPWAPLSSCPSQALQLAGCLSQLHSGLFLYQGLLQALEGISPELGPTLDTLQLDVADFATTIWQQMEELGMAPALQPTQGAMPAFASAFQRRAGGVLVASHLQSFLEVSYRVLRHLAQP
notes: growth factor used as positive control for EPC and MDSC mobilization
On to B1, for which the “EPC mobilization compared to Saline control” value in experiment [1] is recorded as “significant increase”. Also, the EPC mobilization result in experiment [5] was “significant increase”.

These data come from US9358252B2, “Polysaccharide compositions and methods of use for the treatment and prevention of disorders associated with progenitor cell mobilization” (MOMENTA PHARMACEUTICALS, INC., priority 2007, dated 2016).
